This note sets out measurements from patent publication US20230399327A1, “HIGH ACTIVITY HPK1 KINASE INHIBITOR” (ADLAI NORTYE BIOPHARMA CO., LTD., priority 2020, published 2023).

HPK1 kinase, sequence (Q92918 whole entry): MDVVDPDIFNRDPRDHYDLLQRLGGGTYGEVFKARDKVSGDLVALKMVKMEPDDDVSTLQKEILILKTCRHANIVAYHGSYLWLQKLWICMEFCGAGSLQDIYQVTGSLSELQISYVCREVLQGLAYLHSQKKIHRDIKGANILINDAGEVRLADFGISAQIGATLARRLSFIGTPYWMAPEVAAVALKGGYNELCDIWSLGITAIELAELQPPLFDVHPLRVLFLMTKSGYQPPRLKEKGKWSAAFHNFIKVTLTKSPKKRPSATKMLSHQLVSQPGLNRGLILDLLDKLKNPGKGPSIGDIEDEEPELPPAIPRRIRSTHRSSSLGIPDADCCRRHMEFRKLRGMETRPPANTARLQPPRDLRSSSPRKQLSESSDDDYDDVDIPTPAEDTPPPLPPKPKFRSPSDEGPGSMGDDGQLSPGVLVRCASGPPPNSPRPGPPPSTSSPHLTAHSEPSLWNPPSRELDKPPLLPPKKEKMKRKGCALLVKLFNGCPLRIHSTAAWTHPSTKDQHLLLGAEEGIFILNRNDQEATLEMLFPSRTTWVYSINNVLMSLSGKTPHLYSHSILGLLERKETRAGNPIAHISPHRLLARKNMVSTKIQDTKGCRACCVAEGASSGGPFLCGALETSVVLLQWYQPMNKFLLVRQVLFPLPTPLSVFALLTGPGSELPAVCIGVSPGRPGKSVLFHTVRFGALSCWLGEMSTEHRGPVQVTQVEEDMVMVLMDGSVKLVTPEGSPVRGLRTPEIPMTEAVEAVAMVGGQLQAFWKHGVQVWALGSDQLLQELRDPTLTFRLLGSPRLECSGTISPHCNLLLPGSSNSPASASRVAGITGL

The assay concerns the target HPK1 kinase (Homo sapiens (Human), UniProt Q92918). As to the kind of experiment: HPK1 kinase activity inhibition (ADP-Glo Kinase Assay). It counts as biochemical. The settings on record: HPK1, MBP substrate, ATP, 25° C. 60 min. Here is the method: Test Example 1: Detection of Compound's Ability to Inhibit HPK1 Kinase Activity (Method 1)
The specific operation is as follows: configure the enzymatic reaction system buffer (10 mM MOPS, pH 7.2, 5 mM β-glycerol-phosphate, 10 mM MgCl2, 0.8 mM EDTA, 2 mM EGTA, 0.1 mM DTT); the test compound (1 mM the compound stock solution in DMSO) was diluted with buffer to the highest concentration of 60 uM (containing 6% DMSO), and the compound with a concentration of 60 μM was initially diluted 5 times with a buffer containing 6% DMSO for a total of 8 points of gradient concentration; then dilute HPK1 kinase to 30 nM in buffer. Add 2 μl of HPK1 kinase diluent to each well of a Greiner 384-well microplate (Cat. No. 784075), and add 2 μl of buffer to the control well; add 1 μl of the diluted compound to the reaction well after brief centrifugation, and add 1 μl buffer solution containing 6% DMSO to the control well; after short centrifugation, place in a 25° C. constant temperature incubator (Shanghai Yiheng Scientific Instrument Co., Ltd., Cat. No.: LRH-150) and incubate for 20 minutes. Add 3 μl of reaction substrate (10 μM MBP and 20 μM ATP dissolved in distilled water) to each well, briefly centrifuge and incubate in a constant temperature incubator at 25° C. for 60 min, and use ADP-Glo Kinase Assay Kit to detect the enzymatic reaction activity, ADP-Glo Kinase Assay Kit detection is carried out according to the operating instructions of the kit. Data are described using the half maximal inhibitory concentration IC50 of the compound.
Consider `COc1nc2c(cc1Nc1ncc3cccc(-c4ccc5c(cnn5C)c4)c3n1)CN(C)CC2` [Example 3, N-(2-methoxy-6-methyl-5,6,7,8-tetrahydro-1,6-naphthyridin-3-yl)-8-(1-methyl-1H-indazole-5-yl)quinazolin-2-amine], for which the IC50 was less than 0.1 nM.
The compound `COc1nc2c(cc1Nc1ncc3cccc(-c4ccccc4F)c3n1)CN(C)CC2` [Example 4, 8-(2-fluorophenyl)-N-(2-methoxy-6-methyl-5,6,7,8-tetrahydro-1,6-naphthyridin-3-yl)quinazoline-2-amine] came in with an IC50 of less than 0.1 nM.
In turn, `COc1ccccc1-c1cccc2cnc(Nc3cc4c(nc3OC)CCN(C)C4)nc12` [Example 5, N-(2-methoxy-6-methyl-5,6,7,8-tetrahydro-1,6-naphthyridin-3-yl)-8-(2-methoxyphenyl)quinazole Lin-2-amine] yielded an IC50 of less than 0.1 nM.
`COc1cccc(-c2cccc3cnc(Nc4cc5c(nc4OC)CCN(C)C5)nc23)c1` [Example 6, N-(2-methoxy-6-methyl-5,6,7,8-tetrahydro-1,6-naphthyridin-3-yl)-8-(3-methoxyphenyl)quinazole Lin-2-amine]: the half-inhibitory concentration (IC50) is less than 0.1 nM.
The figure for `COc1nc2c(cc1Nc1ncc3cccc(C4=CCOCC4)c3n1)CN(C)CC2` [Example 7, 8-(3,6-dihydro-2H-pyran-4-yl)-N-(2-methoxy-6-methyl-5,6,7,8-tetrahydro-1,6-naphthalenepyridin-3-yl)quinazolin-2-amine] is 1.22 nM; for `COc1nc2c(cc1Nc1ncc3cccc(-c4cnn(C)c4)c3n1)CN(C)CC2` [Example 8, N-(2-methoxy-6-methyl-5,6,7,8-tetrahydro-1,6-naphthyridin-3-yl)-8-(1-methyl-1H-pyrazole-4-yl)quinazolin-2-amine] it is 1.84 nM; for `COc1nc2c(cc1Nc1ncc3cccc(-c4cccnc4)c3n1)CN(C)CC2` [Example 9, N-(2-methoxy-6-methyl-5,6,7,8-tetrahydro-1,6-naphthyridin-3-yl)-8-(pyridin-3-yl)quinazoline-2-amine] it is 3.49 nM.
With `COc1nc2c(cc1Nc1ncc3cccc(-c4ccc(=O)n(C)c4)c3n1)CN(C)CC2` [Example 10, 5-(2-((2-methoxy-6-methyl-5,6,7,8-tetrahydro-1,6-naphthyridin-3-yl)amino)quinazolin-8-yl)-1-Methylpyridin-2(1H)-one] the figure was 1.48 nM; with `COc1nc2c(cc1Nc1ncc3cccc(C4CCOCC4)c3n1)CN(C)CC2` [Example 11, N-(2-methoxy-6-methyl-5,6,7,8-tetrahydro-1,6-naphthyridin-3-yl)-8-(tetrahydro-2H-pyran-4-base) quinazolin-2-amine], 1.54 nM.
The figure for `CNC(=O)c1ccccc1-c1cccc2cnc(Nc3cc4c(nc3OC)CCN(C)C4)nc12` [Example 12, 2-(2-((2-methoxy-6-methyl-5,6,7,8-tetrahydro-1,6-naphthyridin-3-yl)amino)quinazolin-8-yl)-N-methylbenzamide] is 37.8 nM; for `COC(=O)c1cccc(-c2cccc3cnc(Nc4cc5c(nc4OC)CCN(C)C5)nc23)c1` [Example 13, 3-(2-((2-methoxy-6-methyl-5,6,7,8-tetrahydro-1,6-naphthyridin-3-yl)amino)quinazolin-8-yl) methyl benzoate] it is less than 0.1 nM.
In the case of `CNC(=O)c1cccc(-c2cccc3cnc(Nc4cc5c(nc4OC)CCN(C)C5)nc23)c1` [Example 14, 3-(2-((2-methoxy-6-methyl-5,6,7,8-tetrahydro-1,6-naphthyridin-3-yl)amino)quinazolin-8-yl)-N-methylbenzamide], the IC50 was 1.92 nM.
With `COc1nc2c(cc1Nc1ncc3cccc(C4=CCN(C(=O)OC(C)(C)C)CC4)c3n1)CN(C)CC2` [Example 15, 4-(2-((2-methoxy-6-methyl-5,6,7,8-tetrahydro-1,6-naphthyridin-3-yl)amino)quinazolin-8-yl)-3,6-Dihydropyridine-1(2H)-carboxylic acid tert-butyl ester] the figure was 9.85 nM; with `C=C(C)c1cccc2cnc(Nc3cc4c(nc3OC)CCN(C)C4)nc12` [Example 16, N-(2-methoxy-6-methyl-5,6,7,8-tetrahydro-1,6-naphthyridin-3-yl)-8-(prop-1-en-2-yl) quinazolin-2-amine], 1.74 nM; with `COc1nc2c(cc1Nc1ncc3cccc(C4=CCN(C(C)=O)CC4)c3n1)CN(C)CC2` [Example 17, 1-(4-(2-((2-methoxy-6-methyl-5,6,7,8-tetrahydro-1,6-naphthyridin-3-yl)amino)quinazoline-8-yl)-3,6-dihydropyridin-1(2H)-yl)ethan-1-one], less than 0.1 nM.
With `COc1nc2c(cc1Nc1ncc3cccc(-c4ccccc4OC(F)(F)F)c3n1)CN(C)CC2` [Example 18] the figure was less than 0.1 nM.
The figure for `COc1nc2c(cc1Nc1ncc3cccc(-c4ccccc4SC)c3n1)CN(C)CC2` [Example 19, N-(2-methoxy-6-methyl-5,6,7,8-tetrahydro-1,6-naphthyridin-3-yl)-8-(2-(methylthio)phenyl) Quinazolin-2-amine] is less than 0.1 nM; for `COc1cccc(F)c1-c1cccc2cnc(Nc3cc4c(nc3OC)CCN(C)C4)nc12` [Example 21, 8-(2-fluoro-6-methoxyphenyl)-N-(2-methoxy-6-methyl-5,6,7,8-tetrahydro-1,6-naphthyridine-3-base) quinazolin-2-amine] it is less than 0.1 nM.
On to `COc1nc2c(cc1Nc1ncc3cccc(-c4ccccc4OCc4ccccc4)c3n1)CN(C)CC2` [Example 22, 8-(2-(benzyloxy)phenyl)-N-(2-methoxy-6-methyl-5,6,7,8-tetrahydro-1,6-naphthyridin-3-yl) quinazolin-2-amine], for which the IC50 was 5.16 nM.
The figure for `COc1nc2c(cc1Nc1ncc3cccc(-c4cccnc4OC)c3n1)CN(C)CC2` [Example 23, N-(2-methoxy-6-methyl-5,6,7,8-tetrahydro-1,6-naphthyridin-3-yl)-8-(2-methoxypyridin-3-yl) quinazolin-2-amine] is less than 0.1 nM; for `COc1nc2c(cc1Nc1ncc3cccc(N4CCCC4=O)c3n1)CN(C)CC2` [Example 24, 1-(2-((2-methoxy-6-methyl-5,6,7,8-tetrahydro-1,6-naphthyridin-3-yl)amino)quinazolin-8-yl) pyrrolidin-2-one] it is less than 0.1 nM.
With `COc1ccccc1-c1nccc2cnc(Nc3cc4c(nc3OC)CCN(C)C4)nc12` [Example 25, N-(2-methoxy-6-methyl-5,6,7,8-tetrahydro-1,6-naphthyridin-3-yl)-8-(2-methoxyphenyl)pyrido [3,4-d]pyrimidin-2-amine] the figure was 0.16 nM.
With `COc1nc2c(cc1Nc1ncc3ccnc(-c4ccc(=O)n(C)c4)c3n1)CN(C)CC2` [Example 27, 5-(2-((2-methoxy-6-methyl-5,6,7,8-tetrahydro-1,6-naphthyridin-3-yl)amino)pyrido[3,4-d]pyrimidino-8-yl)-1-methylpyridin-2(1H)-one] the figure was 16.2 nM; with `COc1nc2c(cc1Nc1ncc3cccc(-c4ccn(C)n4)c3n1)CN(C)CC2` [Example 30, N-(2-methoxy-6-methyl-5,6,7,8-tetrahydro-1,6-naphthyridin-3-yl)-8-(1-methyl-1H-pyrazole-3-yl)quinazolin-2-amine], 0.27 nM; with `COc1nc2c(cc1Nc1ncc3cccc(NCC4CCOCC4)c3n1)CN(C)CC2` [Example 31, N2-(2-methoxy-6-methyl-5,6,7,8-tetrahydro-1,6-naphthyridin-3-yl)-N8-((tetrahydro-2H-pyran-4-yl)methyl)quinazoline-2,8-diamine], 1.66 nM.
Compound `COc1nc2c(cc1Nc1ncc3cccc(N4Cc5ccccc5C4=O)c3n1)CN(C)CC2` [Example 32, 2-(2-((2-methoxy-6-methyl-5,6,7,8-tetrahydro-1,6-naphthyridin-3-yl)amino)quinazolin-8-yl) isoindolin-1-one] showed an IC50 of 3.61 nM.
The figure for `COc1nc2c(cc1Nc1ncc3ccnc(N4CCCCC4)c3n1)CN(C)CC2` [Example 33, N-(2-methoxy-6-methyl-5,6,7,8-tetrahydro-1,6-naphthyridin-3-yl)-8-(piperidin-1-yl) pyrido[3,4-d]pyrimidin-2-amine] is 0.52 nM; for `COc1nc2c(cc1Nc1ncc3ccnc(-c4cccnc4OC)c3n1)CN(C)CC2` [Example 34, N-(2-methoxy-6-methyl-5,6,7,8-tetrahydro-1,6-naphthyridin-3-yl)-8-(2-methoxypyridin-3-yl) pyrido[3,4-d]pyrimidin-2-amine] it is 0.61 nM.
With `COc1nc2c(cc1Nc1ncc3ccnc(N4CCOCC4)c3n1)CN(C)CC2` [Example 35, N-(2-methoxy-6-methyl-5,6,7,8-tetrahydro-1,6-naphthyridin-3-yl)-8-morpholinopyrido[3,4-d]pyrimidin-2-amine] the figure was 1.16 nM.
With `COc1nc2c(cc1Nc1ncc3cccc(-c4ccccn4)c3n1)CN(C)CC2` [Example 37, N-(2-methoxy-6-methyl-5,6,7,8-tetrahydro-1,6-naphthyridin-3-yl)-8-(pyridin-2-yl)quinazoline-2-amine] the figure was 4.27 nM.
